In brackets after ≈: the same amount, converted by molar mass. Read-outs that look alike come from different tables or passages of the source.

The values below come from PMC7023430, “4-Aminobenzoic Acid Derivatives: Converting Folate Precursor to Antimicrobial and Cytotoxic Agents” (Biomolecules, 2019).

Data set [1] deals with Klebsiella pneumoniae D 11750/08. Nature of the data set: Antibacterial microdilution broth method, K. pneumoniae. The following applies: K. pneumoniae D 11750/08; for MIC KP 24 h: 24 h incubation; for MIC KP 48 h: 48 h incubation. For orientation: Dilution methods test growth across graded concentrations, often in twofold steps.
In data set [2] the test system is Mtb. 331/88 and three non-tuberculous mycobacterial strains. Nature of the data set: Antimycobacterial activity. It counts as cell-based. The following applies: statement over four mycobacterial strains, time not stated.
In data set [3] the test system is Mycobacterium tuberculosis H37Rv (331/88). As to the kind of experiment: Antimycobacterial micromethod in Šula's medium, M. tuberculosis. It is filed as cell-based.
Data set [4] concerns Candida albicans ATCC 44859. As to the kind of experiment: Antifungal microdilution broth method, C. albicans. It is filed as cell-based. The procedure, abridged: (§1)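 EUCAST-based broth microdilution with slight modifications: compounds dissolved in DMSO and diluted twofold in RPMI-1640 with L-glutamine, 2% glucose, MOPS-buffered to pH 7.0. MIC endpoints were read visually, in duplicate, valid only if parallel MICs differed by no more than one dilution step.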

Data set [5] relates to four Gram-positive and four Gram-negative strains. As to the kind of experiment: Antibacterial activity. It is filed as cell-based.
Another data set concerns eight fungal strains. Nature of the data set: Antifungal activity. It counts as cell-based. The following applies: statement over the fungal panel; time not stated. In short, it runs like this: as §1
In data set [6] the test system is Trichophyton interdigitale 445. As to the kind of experiment: Antifungal microdilution broth method, T. interdigitale. It is filed as cell-based. The procedure, abridged: as §1
For data set [7], the system named is Staphylococcus epidermidis H 6966/08. Nature of the data set: Antibacterial microdilution broth method, S. epidermidis. It is filed as cell-based. The note with it: Staphylococcus epidermidis, H6966/08, S. epidermidis.
Setting [8] is: 336 h, 14 days incubation at 37 °C, read-out: MIC Mtb. 331/88 14 d.
[9] abbreviates: 504 h, 21 days incubation at 37 °C, read-out: MIC Mtb. 331/88 21 d.
[10] abbreviates: ATCC44859, 24 h, read-out: MIC CA 24 h.
Where [11] appears, read: ATCC44859, 48 h, read-out: MIC CA 48 h.
The mark [12] stands for this setting: 24 h incubation, read-out: MIC SE 24 h.
Where [13] appears, read: 48 h incubation, read-out: MIC SE 48 h.

With `O=C(O)c1ccc(NCc2ccccc2O)cc1` [1u, 4-[(2-Hydroxybenzyl)amino]benzoic acid], the “MIC KP 24 h” value in data set [1] is given as more than 500 µM. Further, the “MIC KP 48 h” value in data set [1] is listed as more than 500 µM. In addition, the “MIC, antimycobacterial activity” value in data set [2] is on record as “only negligible antimycobacterial activity”. Moreover, the MIC was 1000 µM (≈ 243 µg/mL) in data set [3] (setting [8]); 1000 µM (≈ 243 µg/mL) in data set [3] (setting [9]); more than 500 µM in data set [4] (setting [10]); more than 500 µM in data set [4] (setting [11]); more than 500 µM in data set [6] (72 h, read-out: MIC TI 72 h); more than 500 µM in data set [6] (120 h, read-out: MIC TI 120 h). Also, the MIC in data set [7] (setting [12]) and in data set [7] (setting [13]) was more than 500 µM each time. Moreover, the “MIC, antibacterial activity” value in data set [5] (statement over the bacterial panel, time not stated) is reported as “avoided any antibacterial action”. Further, the “MIC, antifungal activity” value in the data set with eight fungal strains was “no antimycotic potency”.

For `O=C(O)c1ccc(N=Cc2ccc([N+](=O)[O-])o2)cc1` [1r, 4-{[(5-Nitrofuran-2-yl)methylene]amino}benzoic acid], the “MIC KP 24 h” value in data set [1] is listed as 500 µM (≈ 130 µg/mL). Further, the “MIC KP 48 h” value in data set [1] is listed as 500 µM (≈ 130 µg/mL). Moreover, the MIC in data set [2] (Mycobacterium tuberculosis) is 62.5 to 250 µM (≈ 16.3 to 65.1 µg/mL); in data set [3] (setting [8]) it was 62.5 µM (≈ 16.3 µg/mL); in data set [3] (setting [9]) it was 125 µM (≈ 32.5 µg/mL); in data set [4] (setting [10]) it was 250 µM (≈ 65.1 µg/mL); in data set [4] (setting [11]), 250 µM (≈ 65.1 µg/mL); in data set [5] (converted from 62.5–125 µM, read-out: MIC, staphylococci) it was 16.2 to 32.5 µg/mL. In addition, the MIC was 62.5 to 125 µM in data set [5] (read-out: MIC, three staphylococcal strains); 250 µM (≈ 65.1 µg/mL) in data set [6] (72 h, read-out: MIC TI 72 h); 250 µM (≈ 65.1 µg/mL) in data set [6] (120 h, read-out: MIC TI 120 h); 125 µM (≈ 32.5 µg/mL) in data set [7] (setting [12]); 125 µM (≈ 32.5 µg/mL) in data set [7] (setting [13]).
